According to patent publication US11633379B2, “Methods of inhibiting PCSK9” (TRUSTEES OF DARTMOUTH COLLEGE, priority 2017, dated 2023):
Where two headings read alike, the source gives them in different places.

Experiments:
HepG2 cells = test: LDL-cholesterol uptake in HepG2 cells (3H-cholesterol); format: cell-based, human; conditions: 10 uM for 24 hours, FIG. 16
Description: To determine whether Compound 34 increases LDL-cholesterol uptake, LDL was isolated from human plasma using ultracentrifugation and the cholesterol content of the particle was radiolabeled with 3H-cholesterol. Hepatoma cells (HepG2) were cultured (0.25×10^6 cell/well in a 24-well plate) with or without 10 uM of B004 (compound 34) for 24 hours in DMEM. Radiolabeled LDL-cholesterol (LDL-c) was added to the cells for 4 hours. Cells were washed 3 times with PBS and left to air dry. 500 μl of isopropanol was added to each well and incubate with shaking at room temperature for 3 hours in a sealed container. 50 μl of the isopropanol was placed into a scintillation vial together with 4.5 ml of scintillation liquid cocktail (Scintiverse BD). 3H-cholesterol levels were read using a beta emission radioactive counter.

PCSK9 = test: Basal_PCSK9 HepG2, primary SP and CRC (secreted PCSK9, ELISA); format: cell-based, human
Description: To study the effect of the compounds on PCSK9 secretion we used 1×10^6 HepG2 cells in 6-well culture plates, followed by incubation with media only, media+0.1% DMSO or Media+5 uM of 31/33/34/35 in 0.1% DMSO and collection of 50 ul of media at 8, 16, 24 and 40 hours or incubation with increasing concentration (0.2-50 μM) of 34 in 0.1% DMSO for 24 hours and collection of 50 ul of media. The collected media was analyzed for PCSK9 levels using commercially available ELISA kit (MBL-international, catalog # CY-8079) following the manufacturer instruction.
The below data (Table 2) was generated using the assays as discussed in Examples 1-2. Blanks mean no testing was performed. […] For the SP assays, the higher the number, the higher the inhibition, e.g., the better the activity of the compound. Compounds with a determined IC50 are particularly active, the IC50 values were determined via dose response curve (under the heading CRC which stands for concentration response curve aka dose response curve).

AST = tested on: AST; design: species or system mice; conditions: mouse, in vivo, po
Description: 1) Single-dose experiments: mice were administered (oral gavage or intra-peritoneal injection) with 200 μl of 34 (30 mg/kg or 100 mg/kg) in 0.1% Tween 80+1% hydroxyethyl cellulose (HEC) in buffered (PBS pH7.4) solution. After 34 administration, 50-70 μl of blood was collected from the retro-orbital plexus every 4-6 hours (for a total of 24 hours). Blood was left to clot at room temperature for 20 min, followed by serum separation (spin at 1000 g for 10 min). Serum was analyzed as specified in the “Serum analyses” section. 2) Daily dosage experiments: mice were administered daily oral gavage with 200 μl of 34 (100 mg/kg) in 0.1% Tween80+1% hydroxyethyl cellulose (HEC) in buffered (PBS pH7.4) solution. 50-70 μl of blood was collected from the retro-orbital plexus on day 3 and day 5 after 34 administration, on day 5 mice were euthanized and liver were collected and analyzed as mentioned below under the “Liver analyses” section. Blood was left to clot at room temperature for 20 min, followed by serum separation (spin at 1000 g for 10 min). Serum was analyzed as described below: AST activity—using commercially available activity assay (SIGMA-ALDRICH, catalog # MAK055) following the manufacturer instruction.

[1] = tested on: 4000 most abundant proteins in HepG2 cells; test: Shotgun proteomics of HepG2 cells; format: cell-based, human; conditions: 5 μM, FIGS. 8A-8B
Description: To study whether 34 affect total protein levels in hepG2 in an unbiased analysis we used 1×10^6 HepG2 cells in 6-well culture plates, followed by incubation with media+0.1% DMSO or DMSO or with increasing concentration (2.5-10 μM) of 34 in 0.1% DMSO for 24 hours. After 24 hours media was aspirated, cells were washed with HBSS followed by shotgun proteomics analysis of the most abundant ˜4000 cellular proteins. Spectral count for each protein was compared between untreated (0.1% DMSO) to treated (34 at 5 μM) samples.

LDLR [2] = test: Hepatic LDLR levels in mice (western blot); format: in vivo; conditions: livers on day 5 after daily oral 100 mg/kg/day, FIG. 14B
Description: 2) Daily dosage experiments: mice were administered daily oral gavage with 200 μl of 34 (100 mg/kg) in 0.1% Tween80+1% hydroxyethyl cellulose (HEC) in buffered (PBS pH7.4) solution. 50-70 μl of blood was collected from the retro-orbital plexus on day 3 and day 5 after 34 administration, on day 5 mice were euthanized and liver were collected and analyzed as mentioned below under the “Liver analyses” section. Blood was left to clot at room temperature for 20 min, followed by serum separation (spin at 1000 g for 10 min). Serum was analyzed as described below: Hepatic LDLR levels—To study whether 34 affect hepatic LDLR levels we used 10 mg of PBS-flushed livers. Livers were minced and proteins were extracted using available RIPA buffer (SIGMA-ALDRICH, catalog #20-188). Protein extracts (5 μgr) were used for immunodetection of intracellular LDLR (western blot analysis) with a commercially available primary antibody against LDLR (ABCAM, catalog #14056), HRP-conjugated secondary antibody (ABCAM, catalog #97135) visualized using an enhanced chemiluminescence (ECL) solution (Cumaric acid, Luminol and hydrogen peroxide), developed in a LiCore imager.

LDLR [3] = test: LDLR levels in HepG2 cells (western blot); format: cell-based, human; conditions: 5 μM, FIG. 3
Source text: Protein extracts (IMO were used for immunodetection of intracellular LDLR (western blot analysis) with a commercially available primary antibody against LDLR (ABCAM, catalog #14056), HRP-conjugated secondary antibody (ABCAM, catalog #97135) visualized using an enhanced chemiluminescence (ECL) solution (Cumaric acid, Luminol and hydrogen peroxide), developed in a LiCore imager. See FIG. 3.

apoE = apoE secretion, HepG2 (ELISA); format: cell-based, human; conditions: HepG2, FIG. 7A
Description: The collected media was analyzed for apoE levels using commercially available ELISA kit (ABCAM, catalog #108813) following the manufacturer instruction.

CC(=O)Oc1ccc(C2CC3(CCCCC3)c3c2[nH]c2ccccc32)cc1 (stereo not drawn) [Compound 34]
LDL-cholesterol uptake (HepG2 cells): increases LDL-cholesterol uptake in HepG2 cells
Primary SP Basal_PCSK9 HepG2 SP % Inhib @ 5 μM (PCSK9; 5 μM, HepG2, single point): 5.2%
accumulation of PCSK9 in culture media (PCSK9; 5 μM, HepG2 cells, FIGS. 2A-2B): significantly reduced accumulation of PCSK9 in culture media in a time-dependent and concentration-dependent manner
Primary SP Basal_PCSK9 HepG2 SP % Inhib @ 50 μM (PCSK9; 50 μM, HepG2, single point): 100.1%
IC50 (PCSK9; HepG2, concentration response curve): 3.5 µM
activity rating in words (PCSK9 inhibition, Table 2) (PCSK9; summary of Table 2 data): particularly strongly active
liver function (measured as AST activity) (AST; 100 mg/kg): not affected
liver function (measured as AST activity) (AST; 100 mg/kg/day): not affected
levels of the 4000 most abundant proteins [1]: does not affect the levels of the 4000 most abundant proteins in HepG2 cells
increase in hepatic LDLR (LDLR [2]): 16.2%
increase in LDLR protein levels (LDLR [3]): 21%
secreted apoE levels (apoE): no changes in secreted, intracellular, or mRNA levels of apoE
